In brackets after ≈: the same amount, converted by molar mass. Read-outs that look alike come from different tables or passages of the source.
Legend:
[1] = test system: Methicillin-resistant S. aureus (ATCC 33591); assay: MIC, micro-dilution broth, MRSA; type: cell-based; conditions: Staphylococcus aureus, read-out: MIC MRSA
Procedure: (§1) All test compounds were assayed in a micro-dilution broth format. Stock solutions were made by serially diluting the compounds using autoclaved millipore water or broth media. The antibacterial activity of the compounds was determined against methicillin-sensitive S. aureus (MSSA), methicillin-resistant S. aureus (MRSA), vancomycin-intermediate-resistant S. aureus (VISA), vancomycin-sensitive E. faecium (VSE) and vancomycin-resistant E. faecium (VRE). Bacteria, to be tested, were grown for about 10 h in the suitable media, MSSA, MRSA and VISA were grown in yeast-dextrose broth (about 1 g of beef extract, about 2 g of yeast extract, about 5 g of peptone and about 5 g of NaCl in about 1000 mL of sterile distilled water (pH-7)). For solid media, about 5% agar was used along with above mentioned composition. VSE and VRE were cultured in brain heart infusion broth (Himedia). The bacterial samples were freeze dried and stored at −80° C. About 5 μL of these stocks were added to about 3 mL of the nutrient broth and the culture was grown for about 6 h at about 37° C. prior to the experiments. This 6 h grown culture gives about 10^9 cfu/mL and this was determined by spread plating method. The 6 h grown culture was diluted to give effective cell concentration of about 10^5 cfu/mL which was then used for determining MIC. Compounds were serially diluted, in sterile water (2 fold dilution is employed) in a way that the working concentration was about 10 μM for MSSA, MRSA, and VSE while for VRE and VISA it was about 100 μM. About 50 μL of these serial dilutions were added to the wells of 96 well plate followed by the addition of about 150 μL of bacterial solution. The plates were then incubated at about 37° C., 150 rpm in the incubator and O.D at 600 nm was recorded at an interval of about 10 h and 24 h using TECAN (Infinite series, M200 pro) Plate Reader. Each concentration had triplicate values and the whole experiment was done at least twice and the MIC value was determined by taking the average of triplicate. O. D. values for each concentration and plotting it against concentration. The data was then subjected to sigmoidal fitting. From the curve the MIC value was determined, as the point in the curve where the O. D. was similar to that of control having no bacteria.

[2] = test system: Vancomycin intermediate resistant S. aureus; assay: MIC, micro-dilution broth, VISA; type: cell-based; conditions: VISA
Procedure: as §1

[3] = test system: Vancomycin-resistant E. faecium (VanA, ATCC 51559); assay: MIC, micro-dilution broth, VRE (VanA); type: cell-based
Procedure: as §1

[4] = test system: methicillin-resistant S. epidermidis clinical isolate; assay: MIC, clinical isolate of methicillin-resistant S. epidermidis; type: cell-based; conditions: Staphylococcus epidermidis, read-out: MIC S. epidermidis
[5] = test system: methicillin-resistant S. haemolyticus clinical isolate; assay: MIC, clinical isolate of methicillin-resistant S. haemolyticus; type: cell-based; conditions: Staphylococcus haemolyticus, read-out: MIC S. haemolyticus
[6] = test system: methicillin-resistant S. aureus clinical isolate; assay: MIC, clinical isolate of methicillin-resistant S. aureus; type: cell-based; conditions: Staphylococcus aureus, read-out: MIC S. aureus
Procedure: as §1

[7] = test system: VISA; assay: In-vivo time dependent whole blood assay; set-up: species or system S. aureus; conditions: 12 mg/kg single i.v., CD-1 mice
Procedure: The derivative 7 and vancomycin were administered in a single intravenous injection (0.2 mL saline) to normal pathogen-free, female CD-1 mice. Doses of 12 mg kg^−1 were administered to three mice per data point. At the specified time-points (0, 3, 6, 12, 24 and 48 h) mice were euthanized (using ether), blood samples were collected from the ocular puncture. 60 μL of VISA in saline (0.9% NaCl; 10^6 CFU/mL) was added to 540 μL of whole blood which was drawn from the mice and incubated at 37° C. for 3 h. After the incubation period, antibacterial activity was determined by finding the bacterial titer in the infected blood.

[8] = test system: methicillin-resistant vancomycin-intermediate S. aureus (MR-VISA); assay: Time-kill assay; type: cell-based; conditions: 2 μM and 4 μM
Procedure: The bactericidal activity was assessed by the kinetics or the rate at which it affects the killing action of the compound. Briefly methicillin-resistant vancomycin-intermediate S. aureus (MR-VISA) grown in Yeast-Dextrose broth. A starting inoculum of 1.6×10^8 CFU/ml was used as initial bacterial colony count. Vancomycin and compound 7 having final concentrations of 2 μM and 4 μM were inoculated with MR-VISA suspensions having starting inocula of 1.6×10^8 CFU/ml. Bacterial suspension containing specified concentrations of the compound along with negative control (which contains only 0.9% Saline) was incubated at 37° C. with shaking. Aliquots (20 μl) were removed from the cultures at different time intervals and were serially diluted 10-fold in 0.9% saline and plated onto sterile Yeast-Dextrose agar medium. The number of viable cells was determined by plating the 10-fold serial dilution of each sample onto Yeast-dextrose agar medium. Plates were then incubated for 24 h at 37° C., CFU was counted and the total bacterial log 10 CFU/ml was determined.

[9] = Single dose pharmacokinetics; type: in vivo, CD-1 female mice; set-up: clearance: unit not given here; conditions: 12 mg/kg single i.v., mice, plasma
Procedure: A single dose pharmacokinetic analysis of compound 7 was performed in CD-1 female mice. Mice were administered a single intravenous dose of 12 mg/kg. Blood samples were collected from mice by retro-orbital aspiration and placed into heparinized tubes at different time intervals after dosing. The plasma was separated by centrifugation, and drug plasma concentrations were measured by microbiologic assay with Bacillus subtilis as the test organism. The lower limit of detection of the assay was 0.6 μg/ml. Pharmacokinetic parameters, including half-life, AUC and Cmax were calculated by using non-compartmental model.

[10] = Systemic toxicity (LD50); set-up: species or system CD-1 female mice; conditions: female, CD-1, mouse, in vivo, iv, single-dose i.v., mice
Procedure: Systemic toxicity was examined after i.v injection of compound 7 to CD-1 female mice. Each mouse was injected with a 0.2 ml of freshly prepared compound 7 solution in saline. The doses of the compound administered per group were according to OECD guidelines (OECD, 2005).

In the case of `CCCCCCCCCCN[C@]1(C)C[C@H](OC2C(O)[C@@H](O)C(CO)O[C@@H]2Oc2c3cc4cc2Oc2ccc(cc2Cl)[C@@H](O)[C@@H](NC(=O)[C@@H](CC(C)C)NC)C(=O)N[C@@H](CC(N)=O)C(=O)N[C@H]4C(=O)N[C@H]2C(=O)N[C@H](C(=O)N[C@H](C(=O)NCCCNC(=O)[C@H](O)[C@@H](O)[C@H](OC4OC(CO)C(O)C(O)[C@H]4O)[C@H](O)CO)c4cc(O)cc(O)c4-c4cc2ccc4O)[C@H](O)c2ccc(c(Cl)c2)O3)OC(C)[C@@H]1O` (stereo partly shown) [Compound 7], the MIC [1] is reported as 0.3 µM (≈ 0.596 µg/mL), the MIC ([2]; Staphylococcus aureus, read-out: MIC VISA) is reported as 0.2 µM (≈ 0.397 µg/mL) and the “fold more active than vancomycin” value [2] is reported as “about 65 fold”. The MIC ([3]; Enterococcus faecium, read-out: MIC VRE (VanA)) was 1 µM (≈ 1.99 µg/mL), the “fold higher activity than vancomycin” value ([3]; VRE (VanA phenotype)) was over 700 fold and the MIC [4] was 0.3 µM (≈ 0.596 µg/mL). The MIC [5] was 0.41 µM (≈ 0.814 µg/mL), the MIC [6] was 0.3 µM (≈ 0.596 µg/mL) and the CFU/mL reduction ([7]; blood drawn up to 24 h, VISA) was 3 log10 CFU/mL. The “time after dosing up to which blood showed antibacterial activity” value ([7]; blood incubated with VISA 3 h) was 24 h, the killing kinetics [8] was “rapid” and the Cmax [9] was 703 µg/mL. For the same molecule, the Cmin [9] was 1.7 µg/mL, the half-life ([9]; female, CD-1, mouse, iv) was 2.76 h and the AUC(0-t) ([9]; female, CD-1, mouse, iv, read-out: AUC0-24 h) was 562 µg·h/mL. It also gave a Cmax ([9]; female, CD-1, mouse, iv, 12 mg/kg, read-out: Cmax) of 703 µg/mL, a clearance ([9]; female, CD-1, mouse, iv) of 4.17 and an AUC ([9]; female, CD-1, mouse, iv, 0.083 h to 24 h) of 562 µg·h/mL. It also gave an LD50 at 14 days [10] of over 100 mg/kg.

Source: US20160303184A1, “VANCOMYCIN-SUGAR CONJUGATES AND USES THEREOF” (JAWAHARLAL NEHRU CENTRE FOR ADVANCED SCIENTIFIC RESEARCH …, priority 2013, published 2016)
